Data: ChEMBL document CHEMBL1201862, “PubChem BioAssay data set” (2004)
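48-hour exposure; five concentrations; linearly interpolated endpoints. The concentration for 50% growth inhibition is given as GI50.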 Activity calls are given as the source filed them. Rule as the data show it: active = GI50 up to about 1.1 µM and inactive = higher.

Key:
Experiment in all cases: DTP human tumour cell line panel, 48 h
UACC-257 = test system: UACC-257
OVCAR-4 = test system: OVCAR-4
T47D = test system: T47D
HOP-62 = test system: HOP-62
MDA-MB-231 = test system: MDA-MB-231
K562 = test system: K562
PC-3 = test system: PC-3
OVCAR-5 = test system: OVCAR-5
MCF7 = test system: MCF7
Malme-3M = test system: Malme-3M
OVCAR-3 = test system: OVCAR-3
BT-549 = test system: BT-549
CCRF-CEM = test system: CCRF-CEM
Hs-578T = test system: Hs-578T
HOP-92 = test system: HOP-92
MDA-N = test system: MDA-N

SMILES	GI50 (UACC-257)	GI50 (OVCAR-4)	GI50 (T47D)	GI50 (HOP-62)	GI50 (MDA-MB-231)	GI50 (K562)	GI50 (PC-3)	GI50 (OVCAR-5)	GI50 (MCF7)	GI50 (Malme-3M)	GI50 (OVCAR-3)	GI50 (BT-549)	GI50 (CCRF-CEM)	GI50 (Hs-578T)	GI50 (HOP-92)	GI50 (MDA-N)
COC(=O)CP1(=O)OC2C(C3CCC2(C)C3(C)C)N1c1cc(C(F)(F)F)cc(C(F)(F)F)c1 (stereo unspecified)	32.8 µM (inactive)	13.5 µM (inactive)	19.1 µM (inactive)	31.2 µM (inactive)	20.6 µM (inactive)	19.5 µM (inactive)	19.9 µM (inactive)	25.3 µM (inactive)	> 100 µM (inactive)	17.3 µM (inactive)	15.2 µM (inactive)	27.2 µM (inactive)				
CCOC(=O)[C@@]12CCC(C1=O)[C@](C)(O)C[C@@H]2c1ccccc1	75 µM (inactive)	> 100 µM (inactive)	39 µM (inactive)	71.1 µM (inactive)	36.5 µM (inactive)	30.4 µM (inactive)	34 µM (inactive)	80.9 µM (inactive)		37.6 µM (inactive)	28.2 µM (inactive)	58.5 µM (inactive)	79.4 µM (inactive)	22.6 µM (inactive)	55.1 µM (inactive)	3.86 µM (inactive)
Nc1ncnc2c1nnn2C1C=CC(CP(=O)(O)O)C1 (stereo unspecified)	> 100 µM (inactive)	> 100 µM (inactive)	> 100 µM (inactive)	> 100 µM (inactive)	> 100 µM (inactive)		> 100 µM (inactive)	> 100 µM (inactive)	> 100 µM (inactive)	> 100 µM (inactive)	> 100 µM (inactive)			> 100 µM (inactive)		> 100 µM (inactive)
Cn1cnc(N2CCCC2)c(C#N)c1=S	> 100 µM (inactive)	> 100 µM (inactive)	> 100 µM (inactive)	> 100 µM (inactive)	> 100 µM (inactive)	> 100 µM (inactive)	> 100 µM (inactive)	> 100 µM (inactive)	> 100 µM (inactive)	> 100 µM (inactive)	> 100 µM (inactive)		> 100 µM (inactive)	> 100 µM (inactive)	76.2 µM (inactive)	> 100 µM (inactive)
C=CCC1C2CCC(O[Si](C(C)C)(C(C)C)C(C)C)(C(C(=O)OC)C2)C1O (stereo unspecified)	38.3 µM (inactive)	> 100 µM (inactive)	38.8 µM (inactive)	> 100 µM (inactive)	> 100 µM (inactive)	71.9 µM (inactive)	67.5 µM (inactive)	> 100 µM (inactive)	35.4 µM (inactive)		> 100 µM (inactive)		60.8 µM (inactive)	23.6 µM (inactive)	> 100 µM (inactive)	> 100 µM (inactive)
NCCCn1c2ccccc2c2c3c(c4c(c21)CCC(O)CC4)C(=O)NC3=O (stereo unspecified)	14.8 µM (inactive)	1.85 µM (inactive)		2.5 µM (inactive)	1.85 µM (inactive)	0.69 µM (active)	3.48 µM (inactive)	2.24 µM (inactive)	0.796 µM (active)	2.14 µM (inactive)	2.55 µM (inactive)	4.81 µM (inactive)	0.962 µM (active)	3.13 µM (inactive)	2.71 µM (inactive)	
CCCC(=O)Oc1cc(OC(=O)CCC)c2c(C)cc(=O)oc2c1	83.6 µM (inactive)	> 100 µM (inactive)		> 100 µM (inactive)	> 100 µM (inactive)	44.9 µM (inactive)	76.2 µM (inactive)	> 100 µM (inactive)	54.5 µM (inactive)	76.6 µM (inactive)	50 µM (inactive)		31.9 µM (inactive)	48.4 µM (inactive)	19.6 µM (inactive)	62.2 µM (inactive)
